Where two headings read alike, the source gives them in different places.
What was measured:
T24 cells [1] = assay: Antiproliferative activity, sulforhodamine B assay, T24 bladder cancer cells; type: cell-based, human; conditions: SRB, mean (±SEM)
Description: (§1) In vitro antiproliferative activity of the compounds was determined in cells derived from bladder cancer (T24) and prostate cancer (LNCaP). The cells were incubated in the presence of the compounds for 48 h. The antiproliferative activity was determined using the sulforhodamine B assay. The results were expressed as GI50, which is the drug concentration resulting in a 50% reduction of cellular net growth when compared with the values of untreated control cells. The standard anticancer drug cisplatin was used as a positive control, and furoxan 3 and 11a were also included as ⋅NO donor reference compounds. The results are summarized in Table 2 for the Ugi product 7a, Ugi-Fx (8a) and 8b–g Ugi-furoxan derivatives, and GBB product 10 and 12a–e GBB-furoxan derivatives.
(§2) The T24 cells were grown in McCoy’s 5A (Biological Industries) supplemented with 10% FBS (Capricorn Scientific). The cells were passaged twice per week, and the culture medium was changed with the same frequency. The LNCaP cells were maintained in RPMI media (Biological Industries) supplemented with 10% FBS (Capricorn Scientific) and 10% of its own conditioned medium (complete media). The cells were passaged once per week, and the medium was changed with the same frequency. The HaCaT cells (immortalized human keratinocytes) were cultured in Dulbecco’s modified Eagle medium (Biological Industries) supplemented with 10% FBS (Capricorn Scientific). The cells were passaged twice per week, and the medium was changed with the same frequency. The cell cultures were maintained under a humidified 5% CO2 atmosphere at 37 °C.
(§3) For viability assays, cells were treated with a 0.25% Trypsin–0.05% EDTA solution and plated in 96-well plates in complete medium the day before the experiment. The cells were seeded in a 96-well plate at densities of 8 × 10^3 cells per well for T24 cells, 12.5 × 10^3 cells per well for LNCaP cells, and 10 × 10^3 cells per well for HaCaT cells. The cultures were allowed to attach for 24 h in a humidified 5% CO2 atmosphere at 37 °C. Then, the cells were treated with increasing concentrations of the compounds (0.4–100.0 µM) prepared in complete medium using stock solutions in DMSO and were kept for 48 h in a CO2 incubator. Wells with only media or 0.5% DMSO were added as controls. The antiproliferative activity of the compounds was assayed using the SRB method in at least three independent experiments.

LNCaP cells = assay: Antiproliferative activity, sulforhodamine B assay, LNCaP prostate cancer cells; type: cell-based, human; conditions: 48 h, SRB, mean (±SEM)
Description: as §1, §2, §3

HaCaT cells [2] = assay: Cytotoxicity in non-cancer keratinocytes, sulforhodamine B assay; type: cell-based; conditions: HaCaT human keratinocytes, 0.4–100 µM, SRB; mean (±SEM)
Description: As a first approximation of the safety profile of the synthesized compounds and to determine the cytotoxic selectivity against cancer cells, the antiproliferative activity in non-cancer cells was studied. This evaluation was carried out in human keratinocyte HaCaT cells with 0.4–100 µM of the test compounds using the sulforhodamine B assay. The selectivity index (SI) was calculated for these compounds by dividing the GI50 for HaCaT by the GI50 for each cancer cell line. […] The derivatives Ugi-Fx (8a) and 12e stand out, with selectivity indices of 14.5 and 10.8, respectively. […] Concerning the LNCaP prostate cancer cell line, as for the reference drug, no selectivity was observed. […] Therefore, this new GBB-furoxan derivative can be a starting point in the design of new structures with improved selectivity.
as §2, §3

T24 cells [3] = assay: Antiproliferative activity with hemoglobin (NO scavenger), SRB assay; type: cell-based, human; conditions: Hb 0 or 50 µM 1 h pretreatment, compounds 10 µM, 48 h, Figure 4
Description: In this context, we next decided to study the effect of ·NO on their antiproliferative activity against T24 cells after incubation with an ·NO scavenger (Hb, hemoglobin). For this purpose, T24 cells were pretreated for 1 h with 0 or 50 µM of Hb and then the ·NO-donor compounds were added at 10 µM for 48 h. […] However, while for some compounds, such as 8d, ·NO release seems to be crucial for the antiproliferative activity, for others, such as Ugi-Fx (8a), other mechanisms would account for its anticancer effect. It is well-known that the action of 3-phenylsulfonylfuroxan derivatives is connected to ⋅NO release due to their interaction with free intracellular thiols or thiol groups of proteins. However, this action may also involve a covalent bond to thiol biomolecules with the concomitant displacement of the phenylsulfonyl group, leading to a cytotoxic adduct accumulation in the cell milieu. […] Further studies to elucidate the possible mechanisms of action involved will be performed.
To investigate the contribution of ⋅NO to the antiproliferative activity of the studied compounds, we tested their effect on T24 bladder cancer cell growth in the absence and presence of Hb. Cells were seeded into a 96-well plate at 8 × 10^3 cells per well and were allowed to attach for 24 h. […] Then, the antiproliferative activity was assessed by the SRB assay in at least three independent experiments. […]

A549 (Lung) = system: A549 (Lung); design: method as in PMID 31356736; conditions: cited from earlier work
HBL-100 (Breast) = system: HBL-100 (Breast); design: method as in PMID 31356736; conditions: cited from earlier work
HeLa (Cervix) = system: HeLa (Cervix); design: method as in PMID 31356736; conditions: cited from earlier work
SW1573 (Lung) = system: SW1573 (Lung); design: method as in PMID 31356736; conditions: cited from earlier work
T-47D (Breast) = system: T-47D (Breast); design: method as in PMID 31356736; conditions: cited from earlier work
WiDr (Colon) = system: WiDr (Colon); design: method as in PMID 31356736; conditions: cited from earlier work
HaCaT cells [4] = system: HaCaT cells; design: method as in PMID 30489292; conditions: HaCaT human keratinocytes; cited from earlier work

GI50 (T24 cells [1]; Homo sapiens, T-24, 48 h) | GI50 (LNCaP cells; Homo sapiens) | SMILES | GI50 (HaCaT cells [2]) | other results
> 100 µM | > 100 µM | Cc1ccc(N(C(=O)c2cccc(O)c2)C(C(=O)NC(C)(C)C)c2ccccc2)cc1 (stereo not drawn) [7a, N-(1-(tert-butylaminocarbonyl)-1-phenylmethyl)-N-(4-methylphenyl)-3-hydroxyphenyl carboxamide] |  | 
1.83 µM | 13.3 µM | Cc1ccc(N(C(=O)c2ccccc2Oc2no[n+]([O-])c2S(=O)(=O)c2ccccc2)C(C(=O)NC(C)(C)C)c2ccccc2)cc1 (stereo not drawn) [8b, N-[1-(tert-butylaminocarbonyl)-1-phenylmethyl]-N-(4-methylphenyl)-2-[3-(phenylsulfonyl)-[1,2,5]oxadiazol-4-yl N2-oxide]oxyphenylcarboxamide] | 3.78 µM | 
2.18 µM | 18.8 µM | Cc1ccc(N(C(=O)c2ccc(Oc3no[n+]([O-])c3S(=O)(=O)c3ccccc3)cc2)C(C(=O)NC(C)(C)C)c2ccccc2)cc1 (stereo not drawn) [8c, N-[1-(tert-butylaminocarbonyl)-1-phenylmethyl]-N-(4-methylphenyl)-4-[3-(phenylsulfonyl)-[1,2,5]oxadiazol-4-yl N2-oxide]oxyphenylcarboxamide] | 4.62 µM | 
2.1 µM | 21.8 µM | Cc1ccc(N(CC(=O)NC(C)(C)C)C(=O)c2cccc(Oc3no[n+]([O-])c3S(=O)(=O)c3ccccc3)c2)cc1 [8d, N-(1-(tert-butylaminocarbonyl)methyl)-N-(4-methylphenyl)-3-[3-(phenylsulfonyl)-[1,2,5]oxadiazol-4-yl N2-oxide]oxy phenylcarboxamide] | 9.99 µM | 
1.53 µM | 21.8 µM | CCCCN(C(=O)c1cccc(Oc2no[n+]([O-])c2S(=O)(=O)c2ccccc2)c1)C(C(=O)NC(C)(C)C)c1ccccc1 (stereo not drawn) [8e, N-(1-(tert-butylaminocarbonyl)-1-phenylmethyl)-N-(butyl)-3-[3-(phenylsulfonyl)-[1,2,5]oxadiazol-4-yl N2-oxide]oxyphenylcarboxamide] | 11.8 µM | 
2.86 µM | 29.9 µM | CCCCN(CC(=O)NC(C)(C)C)C(=O)c1cccc(Oc2no[n+]([O-])c2S(=O)(=O)c2ccccc2)c1 [8f, N-(1-(tert-butylaminocarbonyl)methyl)-N-(butyl)-3-[3-(phenylsulfonyl)-[1,2,5]oxadiazol-4-yl N2-oxide]oxyphenylcarboxamide] | 11.8 µM | 
1.7 µM | 36.7 µM | Cc1ccc(N(C(=O)c2ccccc2)C(C(=O)NC(C)(C)C)c2cccc(Oc3no[n+]([O-])c3S(=O)(=O)c3ccccc3)c2)cc1 (stereo not drawn) [8g, N-(1-(tert-butylaminocarbonyl)-1-3-[3-(phenylsulfonyl)-[1,2,5]oxadiazol-4-yl N2-oxide]oxyphenylmethyl)-N-(4-methylphenyl)-phenylcarboxamide] | 4.99 µM | 
7.08 µM | 24.5 µM | O=Cc1cccc(Oc2no[n+]([O-])c2S(=O)(=O)c2ccccc2)c1 [11a, reference compound] | 7.83 µM | 
1.76 µM | 24.7 µM | CC(C)(C)Nc1c(-c2cccc(Oc3no[n+]([O-])c3S(=O)(=O)c3ccccc3)c2)nc2ccccn12 [12a, 4-(3-(3-(tert-butylamino)imidazo[1,2-a]pyridin-2-yl)phenoxy)-3-(phenylsulfonyl)-1,2,5-oxadiazole 2-oxide] | 7.44 µM | 
0.85 µM | 7.7 µM | CC(C)(C)Nc1c(-c2ccccc2Oc2no[n+]([O-])c2S(=O)(=O)c2ccccc2)nc2ccccn12 [12b, 4-(2-(3-(tert-butylamino)imidazo[1,2-a]pyridin-2-yl)phenoxy)-3-(phenylsulfonyl)-1,2,5-oxadiazole 2-oxide] | 3.11 µM | GI50 T24 (T24 cells [1]; 48 h): sub-micromolar range
2.99 µM | 24.2 µM | CC(C)(C)Nc1c(-c2ccc(Oc3no[n+]([O-])c3S(=O)(=O)c3ccccc3)cc2)nc2ccccn12 [12c, 4-(4-(3-(tert-butylamino)imidazo[1,2-a]pyridin-2-yl)phenoxy)-3-(phenylsulfonyl)-1,2,5-oxadiazole 2-oxide] | 5.22 µM | 
2.72 µM | 8.13 µM | CC(C)(C)Nc1c(-c2cccc(Oc3no[n+]([O-])c3S(=O)(=O)c3ccccc3)c2)nc2cnccn12 [12d, 4-(3-(3-(tert-butylamino)imidazo[1,2-a]pyrazin-2-yl)phenoxy)-3-(phenylsulfonyl)-1,2,5-oxadiazole 2-oxide] | 9.84 µM | 
0.83 µM | 16.5 µM | CC(C)(C)Nc1c(-c2cccc(Oc3no[n+]([O-])c3S(=O)(=O)c3ccccc3)c2)nc2sccn12 [12e, 4-(3-(5-(tert-butylamino)imidazo[2,1-b]thiazol-6-yl)phenoxy)-3-(phenylsulfonyl)-1,2,5-oxadiazole 2-oxide] | 9.01 µM | GI50 T24 (T24 cells [1]; 48 h): sub-micromolar range
 |  | N.N.[Cl][Pt][Cl] [Cisplatin, cisplatin, reference compound] | 2.51 µM | GI50 (T24 cells [1]; 48 h): 3.28 µM; GI50 (LNCaP cells): 20.3 µM
0.73 µM | 20.2 µM | Cc1ccc(N(C(=O)c2cccc(Oc3no[n+]([O-])c3S(=O)(=O)c3ccccc3)c2)C(C(=O)NC(C)(C)C)c2ccccc2)cc1 (stereo not drawn) [Ugi-Fx (8a), N-[1-(tert-butylaminocarbonyl)-1-phenylmethyl]-N-(4-methylphenyl)-3-[3-(phenylsulfonyl)-[1,2,5]oxadiazol-4-yl N2-oxide]oxyphenylcarboxamide] | 10.6 µM | GI50 T24 (T24 cells [1]; 48 h): sub-micromolar range; Effect of hemoglobin on antiproliferative effect (cell growth inhibition) (T24 cells [3]): high antiproliferative activity even in the presence of a ⋅NO scavenger; GI50 (A549 (Lung)): 2.3 µM; GI50 (HBL-100 (Breast)): 0.23 µM; GI50 (HeLa (Cervix)): 1.8 µM; GI50 (SW1573 (Lung)): 0.021 µM; GI50 (T-47D (Breast)): 1.9 µM; GI50 (WiDr (Colon)): 3 µM
 |  | O=S(=O)(c1ccccc1)c1no[n+]([O-])c1S(=O)(=O)c1ccccc1 [compound 2, 3,4-bis(phenylsulfonyl)furoxan] |  | GI50 (HaCaT cells [4]): 1.47 µM
8.6 µM | 32.5 µM | O=C(O)c1cccc(Oc2no[n+]([O-])c2S(=O)(=O)c2ccccc2)c1 [compound 3, reference compound] | 14.4 µM | 
> 100 µM | > 100 µM | CC(C)(C)Nc1c(-c2cccc(O)c2)nc2ccccn12 [compound 10, N-tert-Butyl-2-(3-hydroxyphenyl)imidazo[1,2-a]pyridin-3-amine] |  | 

— publication PMC8955377, “Greener Synthesis of Antiproliferative Furoxans via Multicomponent Reactions” (Molecules, 2022)
